Experimental data published in patent US11020360B2, “Methods, compounds, compositions and vehicles for delivering 3-amino-1-propanesulfonic acid” (Bellus Health, Inc., priority 2006, dated 2021).
Several values for one entry are separate records, joined by “and”; a condition that tells them apart may be missing. Equal values may be shown once.

What was measured:
[1] = system: organotypic hippocampal slice culture; test: In vitro metabolism of 3APS in organotypic hippocampal slice culture; format: in vitro ADME; details: 3-day incubation in the culture media
Procedure: In another in vitro model employing organotypic hippocampal slice culture, the conversion of 3APS to 2-carboxyethanesulfonic acid was time-dependent. More than 60% of 3APS was converted to 2-carboxyethanesulfonic acid after 3-day incubation in the culture media. 2-carboxyethanesulfonic acid was also detected after incubation of 3APS in human hepatocyte (HepG2) culture media.

[2] = Single oral and IV administration of 14C-3APS to rats; format: in vivo, male Sprague-Dawley rats; details: for AUC0-∞ / AUC(0-inf): 100 mg/kg 14C-3APS, rats, 100 mg/kg; for AUC(0-inf): male, Sprague-Dawley, rat, plasma
Procedure: The purpose of this study was to investigate the absorption, metabolism and excretion profiles of ^14C-3APS following a single intravenous bolus and oral administration to rats. Thirty-six male Sprague-Dawley rats received a single 100 mg/kg (˜50 μCi/animal) dose of ^14C-3APS by an IV bolus injection (water or isotonic saline solution) and an additional 36 male rats received the same dose level by oral gavage (in water). Blood, urine, feces, brain and CSF samples were collected for up to 72 hr following dose administration. Plasma, urine, brain and CSF concentrations of 3APS and 2-carboxyethanesulfonic acid (3APS major metabolite) were measured using LC and MS/MS detection method. Plasma, urine, feces, brain and CSF samples were analyzed for total radioactivity using appropriate sample preparation procedures and scintillation counting.

[3] = Metabolic profiling of 14C-3APS in rats; format: in vivo, male Sprague-Dawley rats
Procedure: (§1) Three single dose studies were conducted in mice, rats and dogs to determine the metabolic profile of ^14C-3APS in plasma, urine and feces. In the first study, twenty-seven male CD-1 mice received a single dose of 100 mg/kg (20 μCi/animal) of ^14C-3APS by oral gavage. Blood samples (3 animals/time point) were collected for 12 hr following drug administration while urine and feces (3 animals/time point) samples were collected for 96 hr. In the second study, eight male Sprague-Dawley rats received a single dose of 100 mg/kg (50 μCi/animal) of ^14C-3APS by oral gavage while in the third study, three male Beagle dogs received a single dose of 100 mg/kg (30 μCi/kg) of ^14C-3APS by oral gavage. For the rat and dog studies, blood samples were collected for 24 hr following drug administration while urine and feces samples were collected for 72 hr. All samples were analyzed for total radioactivity using appropriate sample preparation procedures and scintillation counting. Plasma and urine samples were also analyzed for 3APS and 3APS metabolites (2-carboxyethanesulfonic acid, 3-hydroxy-1-propanesulfonic acid and 3-acetylamino-1-propanesulfonic acid) concentrations using qualified HPLC and MS/MS methods.

[4] = Metabolic profiling of 14C-3APS in mice; format: in vivo, male CD-1 mice; details: Mouse plasma
Procedure: as §1

[5] = Absorption, excretion and plasma kinetics of 14C-3APS in humans; format: in vivo, human
From the text: Following the identification of 3APS metabolites, plasma and urine samples from this human AME study were reanalyzed for 3APS and 3APS metabolite (2-carboxyethanesulfonic acid, 3-hydroxy-1-propanesulfonic acid and 3-acetylamino-1-propanesulfonic acid) concentrations using qualified HPLC and MS/MS methods to determine the metabolic profile of ^14C-3APS in human.

[6] = Bioavailability of exemplary compounds in mice (3APS quantified in plasma); format: in vivo; details: mouse, oral, 3APS in plasma
Procedure: Selected exemplary compounds were tested for bioavailability in mice. Bioavailability estimates are performed for 3APS after administration of molar equivalent the selected compounds. […] The animals are anesthetized with isoflurane before blood collection (approximately 45 sec). Samples are collected at 5, 30, 60, 120, 180, 240 and 360 min post intravenous administration and at 15, 30, 60, 120, 180, 240 and 360 min post oral administration. One animal is used to obtain a baseline sample (pre-dose sample). Blood samples are collected into Sarstedt™ micro tubes (EDTA KE/1.3 ml), kept on ice until centrifugation at 4° C. at a minimum speed of 3000 rpm (1620 G) for 10 min. Plasma samples are transferred into Eppendorf™ tubes, immediately placed on dry ice and stored at −80° C. Plasma samples are stored frozen at […] pending analysis.
Compounds in mouse plasma are extracted using protein precipitation. Quantitation of 3APS in mouse plasma matrix is achieved using LC-MS detection. Sample concentration is calculated using a calibration curve.

[7] = Single oral, intravenous and portal administration of 3APS in rats; format: in vivo, male Sprague-Dawley rats
Procedure: The purpose of this study was to compare the pharmacokinetic profile of 3APS following a single dose administration either orally, intravenously or into the portal vein to male Sprague-Dawley rats. The oral, intravenous and portal routes of administration were selected to determine the intestinal and hepatic first-pass effects in the rat. Three groups of 4 male Sprague-Dawley rats were assigned to receive a single dose of 250 mg/kg 3APS by different routes of administration. One group received 3APS as an IV bolus administration (in water or isotonic saline solution), one group by oral gavage (in water) and the last group via a catheter into the portal vein (in water or isotonic saline solution). Blood samples were collected for 24 hours following dose administration. Plasma concentrations of 3APS and 2-carboxyethanesulfonic acid (the major metabolite of 3APS) were determined using LC and MS/MS method.

[8] = Previous metabolic stability studies of 3APS; format: in vitro ADME
From the text: Those studies include: 3APS metabolic stability in pooled human hepatocytes, human, rat and dog liver microsomes, human intestinal microflora, pooled human liver cytosol, and human arylamine N-acetyltransferase (See Examples 4 and 5).

[9] = PK brain and plasma levels of oral Compound A2 and 3-APS in mice; format: in vivo; details: oral 0.18 mmol/kg
Procedure: Compounds A2 and 3-aminopropanesulfonic acid were tested for pharmacokinetic parameters in mice. Parmacokinetic parameters (Cmax, Tmax, T½, AUC) are evaluated for 3APS after administration of a molar equivalent of each compound. Blood samples (approximately 1 ml) and brain samples are collected from each of 3 animals at time points 5, 15, 30 minutes, 1, 2, 4, 6, 12, and 24 hours. […] A 2-fold increase in plasma concentration (Cmax) of 3-APS was observed when orally administering Compound A2 compared to 3-APS.

[10] = Rat plasma, analyte after single oral 100 mg/kg 14C-3APS
[11] = male, Sprague-Dawley, rat, plasma, po, 100 mg/kg, Rat plasma, analyte after single oral 100 mg/kg 14C-3APS
[12] = analyte after single oral 100 mg/kg 14C-3APS
[13] = male, CD-1, mouse, plasma, po, 100 mg/kg, analyte after single oral 100 mg/kg 14C-3APS

3APS converted to 2-carboxyethanesulfonic acid [1]: More than 60%
% of total radioactivity (AUC0-∞ analyte/AUC total radioactivity) ([2]; IV, Mean): 89%
% of total radioactivity (AUC0-∞ analyte/AUC total radioactivity) ([2]; PO, Mean): about 68%
AUC(0-inf) ([2]; iv, Mean): 1420 µM·h
AUC(0-inf) ([2]; iv, individual animals 1001-1004): 1530 µM·h
AUC(0-inf) ([2]; po, Mean): 507 µM·h
AUC(0-inf) ([2]; po, individual animals 3001-3004): 610 µM·h
AUC0-τ [3, 10]: 26.7 µmol·min/mL
AUC∞ [3, 10]: 27.6 µmol·min/mL
T1/2 ([3]; Rat plasma, analyte after single oral 100 mg/kg 14C-3APS, 100 mg/kg): 386 min
% of Total Radioactivity, Urine ([3]; Rat, amount excreted, single oral 100 mg/kg 14C-3APS): 59%
Tmax [3, 11]: ~30 min
half-life [3, 11]: ~360 min
Cmax ([3]; male, Sprague-Dawley, Rat plasma, analyte (3APS or metabolite) after single oral 100 mg/kg 14C-3APS): 218 µM
AUC0-τ [4, 12]: 15.5 µmol·min/mL
AUC∞ [4, 12]: 15.7 µmol·min/mL
Tmax [4, 13]: ~30 min
half-life [4, 13]: ~120 min
Cmax ([4]; male, CD-1, analyte (3APS or metabolite) after single oral 100 mg/kg 14C-3APS): 97.7 µM
% of total radioactivity in plasma based on AUC0-τ ([5]; healthy subjects, oral 14C-3APS): approximately 48%
% of total amount of radioactivity excreted in urine ([5]; human urine): approximately 15%
Tmax [6]: 15 min
metabolism of 3APS associated with hepatic first-pass ([7]; hepatoportal versus intravenous exposure, 250 mg/kg): 24%
bioavailability based on the AUC∞ ([7]; oral 250 mg/kg): about 38%
metabolism of 3APS associated with intestinal first-pass ([7]; oral versus hepatoportal exposure, 250 mg/kg): 43%
in vitro metabolism [8]: no in vitro metabolism
Brain AUC ([9]; 3-APS analysed): BLLQ
Brain Cmax ([9]; 3-APS analysed): BLLQ
Brain concentration of 3-APS [9]: could not be quantified
Structure (SMILES): NCCCS(=O)(=O)O [Compound 3APS, 3-amino-1-propanesulfonic acid]
AUC0-∞ ([2]; IV, individual animals 1001-1004): 1420 µM·h and 1591 µM·h and 1147 µM·h
AUC0-∞ ([2]; PO, individual animals 3001-3004): 539 µM·h and 407 µM·h and 471 µM·h
